Data: patent US20210261618A1 (TAIAN CITY QIHANG BIOTECHNOLOGY CO., priority 2018, published 2021)
Read-outs that look alike come from different tables or passages of the source. Where no end group is shown, it is not given here.

Tests used:
[1] = system: transplanted tumor cells of human osteosarcoma MG63; details: xenograft tumor after 4 weeks of administration; taxol group, each dose group of sp2
Method: 2. AnnexinV-FITC cell apoptosis (annexinV)
2) 50,000-100,000 resuspended cells was taken, and centrifuged at 1000 g for 5 min. The supernatant was discarded, and 195 μl of AnnexinV-FITC binding solution was added to gently resuspend the cells.
6) Immediately flow cytometry detection was performed, wherein AnnexinV-FITC was green fluorescence, and PI was red fluorescence.

in vivo = details: both, Kunming, mouse, iv, 2000 mg/kgBW
Method: (§1) 20 Kunming mice, healthy adults, half male and half male, weight 20 g±2%
(§2) 4) Route of administration: tail vein injection;
(§3) 5) Administration method: animal acute toxicity test with a single dose was to study the toxic reaction of the animal within a certain period of time after the animal was given the test substance once or multiple times within 24 h. In this experiment, 3 doses within 24 h were used, namely 0.5 mL/each, 3 times/day, with an interval of 3 h;
(§4) 6) Observing and recording the reaction symptoms of the test animals for 14 consecutive days with twice a day on the day of administration and the next day, and then once a day;
(§5) 7) At the end of the experiment, the animals were killed by cervical dislocation. All the test animals were dissected to observe whether their tissues and organs were changed in volume, color, texture, etc. and recorded;

[2] = Kunming mice
Method: as §1, §2, §3, §4, §5

[3] = 1 d after 2000 mg/kgBW tail vein
[4] = 3 d after 2000 mg/kgBW tail vein
[5] = 5 d after 2000 mg/kgBW tail vein
[6] = 7 d after 2000 mg/kgBW tail vein
[7] = 9 d after 2000 mg/kgBW tail vein
[8] = 11 d after 2000 mg/kgBW tail vein
[9] = 13 d after 2000 mg/kgBW tail vein

In the case of `CC(=O)O[C@H]1C(=O)[C@@]2(C)[C@H]([C@H](OC(=O)c3ccccc3)[C@]3(O)C[C@H](OC(=O)[C@H](O)[C@@H](NC(=O)c4ccccc4)c4ccccc4)C(C)=C1C3(C)C)[C@]1(OC(C)=O)CO[C@@H]1C[C@@H]2O` [taxol], the “tumor cell apoptosis compared to the model group” value [1] is reported as “increase the tumor cell apoptosis rate (P<0.05)”.

With RVLNGPEEEAAAPAE [sp2] the NOAEL at 336 h (in vivo) was 2000 mg/kg, the “animal weight, female (group value)” value [2, 3] was 26.458 and the “animal weight, male (group value)” value [2, 3] was 27.565. The “animal weight, female (group value)” value [2, 4] was 28.245, the “animal weight, male (group value)” value [2, 4] was 31.131 and the “animal weight, female (group value)” value [2, 5] was 29.135. The “animal weight, male (group value)” value [2, 5] was 33.177, the “animal weight, female (group value)” value [2, 6] was 30.603 and the “animal weight, male (group value)” value [2, 6] was 35.699. For the same compound, the “animal weight, female (group value)” value [2, 7] was 31.884, the “animal weight, male (group value)” value [2, 7] was 37.611 and the “animal weight, female (group value)” value [2, 8] was 33.355. For the same compound, the “animal weight, male (group value)” value [2, 8] was 38.017, the “animal weight, female (group value)” value [2, 9] was 33.25 and the “animal weight, male (group value)” value [2, 9] was 38.456. The “maximum non-toxic dose administered intravenously” value ([2]; tail vein, observed 14 days) was 2000 mg/kgBW.
